What was measured:
[1] = test system: human CD4 T cells; experiment: Flow cytometry of Tcm and Tte after PD-L2-IgG treatment of stimulated T cells; assay type: cell-based; settings: 25 μg/mL, 48 hours after treatment, vs untreated, p<0.05
Description: After 72 hours, the cells were treated with PD-L2-IgG at concentration of 25 μg/mL. Control wells were left untreated. Forty-eight hours after treatment, the cells were collected, washed and stained with the fluorophore labeled antibodies, and analyzed by flow cytometry. Tom were defined as CD45RO^high/CD62L^high/CD45RA^low. Exhausted T cells or terminal effector T cells (“Tte”) were defined as CD45RO^low/CD62L^low/CD45RA^high.

[2] = target: T1, PD-1 (Mus musculus, UniProt Q02242); experiment: Immunoprecipitation of PD-1 and Western blot of PD-1 bound ITK and SHP2; assay type: cell-based; settings: pre-activated primary mouse CD4 T cells, PD-1 immune-precipitated 5 minutes after treatment, Western blot, compared to control Ab
T1 construct: endogenous in cells
T1 sequence (Q02242 25-288): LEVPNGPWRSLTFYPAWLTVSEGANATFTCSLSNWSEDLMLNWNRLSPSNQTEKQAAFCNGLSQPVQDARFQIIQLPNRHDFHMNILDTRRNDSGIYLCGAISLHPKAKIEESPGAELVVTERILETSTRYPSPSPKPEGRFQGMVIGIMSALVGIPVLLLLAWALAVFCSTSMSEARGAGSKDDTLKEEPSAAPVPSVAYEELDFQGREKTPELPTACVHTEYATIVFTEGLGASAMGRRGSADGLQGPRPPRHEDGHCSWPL
Description: FIGS. 4 and 5 show the modulation of ITK and its effects on immune response. […] However, when there is more ITK than SHP2, a stimulatory signal was generated. When there is the same amount of ITK and SHP2, the immune response was either inhibitory or activating. […] Thus, an activator of ITK would have the effect of enhancing an immune response and an inhibitor of ITK can suppress the immune response. […] PD-1 was immune-precipitated with beads 5 minutes after pre-activated primary mouse CD4 T cells were treated with PD-L1-IgG, PD-L2-IgG or anti-PD-1 mouse blocking antibody (clone RMP1-14).

## PD-L2-IgG: PD-L2 fused to IgG, used to treat T cells; sequence not stated at the place
[1]
  Tcm (CD45RO high/CD62L high/CD45RA low): significant increase
  Tte (exhausted or terminal effector T cells, CD45RO low/CD62L low/CD45RA high): significant decrease
[2]
  ITK/SHP2 ratio (PD-1 bound ITK and SHP2): increased
